Source: PubChem BioAssay AID1963871 (Molecular Pharmacology Branch, DTP, NCI, 2024)

Test system: KRAS-mutant PDC multicell tumor spheroid viability
Experiment: Anticancer human tumor 521955-158-R2-J5-PDC patient-derived pancreatic carcinoma cell line growth inhibition [KRAS2]
Settings: for IC50: curve of first compound; for viability, T/C: stronger effect = lower value
Procedure, shortened: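 KRAS-mutant tumor cells were grown as spheroids with HUVEC endothelial cells and human MSCs as stroma. Targeted agents were tested alone and with KRAS pathway inhibitors. Doses started at or near clinical Cmax, or 10 microM, descending half-log.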

[1] = second compound 0.1 µM, first compound 0.0316 µM
[2] = second compound 0.1 µM, first compound 0.1 µM
[3] = second compound 0.1 µM, first compound 0.316 µM
[4] = second compound 0.1 µM, first compound 1 µM
[5] = second compound 0.1 µM, first compound 3.16 µM
[6] = second compound 0.1 µM, first compound 10 µM
[7] = second compound 0.316 µM, first compound 0.0316 µM
[8] = second compound 0.316 µM, first compound 0.1 µM
[9] = second compound 0.316 µM, first compound 0.316 µM
[10] = second compound 0.316 µM, first compound 1 µM
[11] = second compound 0.316 µM, first compound 3.16 µM
[12] = second compound 0.316 µM, first compound 10 µM
[13] = second compound 1 µM, first compound 0.0316 µM
[14] = second compound 1 µM, first compound 0.1 µM
[15] = second compound 1 µM, first compound 0.316 µM
[16] = second compound 1 µM, first compound 1 µM
[17] = second compound 1 µM, first compound 3.16 µM
[18] = second compound 1 µM, first compound 10 µM
[19] = second compound 3.16 µM, first compound 0.0316 µM
[20] = second compound 3.16 µM, first compound 0.1 µM
[21] = second compound 3.16 µM, first compound 0.316 µM
[22] = second compound 3.16 µM, first compound 1 µM
[23] = second compound 3.16 µM, first compound 3.16 µM
[24] = second compound 3.16 µM, first compound 10 µM
[25] = second compound 10 µM, first compound 0.0316 µM
[26] = second compound 10 µM, first compound 0.1 µM
[27] = second compound 10 µM, first compound 0.316 µM
[28] = second compound 10 µM, first compound 1 µM
[29] = second compound 10 µM, first compound 3.16 µM
[30] = second compound 10 µM, first compound 10 µM
[31] = second compound 0.1 µM, first compound 0.01 µM
[32] = second compound 0.316 µM, first compound 0.01 µM
[33] = second compound 1 µM, first compound 0.01 µM
[34] = second compound 3.16 µM, first compound 0.01 µM
[35] = second compound 10 µM, first compound 0.01 µM
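Further: viability read after seven days of drug exposure.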

| SMILES | IC50 (second compound 0.1 µM) | IC50 (second compound 0.316 µM) | IC50 (second compound 1 µM) | IC50 (second compound 3.16 µM) | IC50 (second compound 10 µM) | viability, T/C [1] | viability, T/C [2] | viability, T/C [3] | viability, T/C [4] | viability, T/C [7] | viability, T/C [8] | viability, T/C [9] | viability, T/C [10] | viability, T/C [13] | viability, T/C [14] | viability, T/C [15] | viability, T/C [16] | viability, T/C [19] | viability, T/C [20] | viability, T/C [21] | other results |
| --- | --- | --- | --- | --- | --- | --- | --- | --- | --- | --- | --- | --- | --- | --- | --- | --- | --- | --- | --- | --- | --- |
| CC(C)NCC(C(=O)N1CCN(c2ncnc3c2C(C)CC3O)CC1)c1ccc(Cl)cc1 (stereo not given) + CC1OCC2(CCN(c3cnc(Sc4ccnc(N)c4Cl)c(N)n3)CC2)C1N | > 10000 nM | > 10000 nM | 1080 nM | 287 nM | 483 nM | 67.8% | 82.7% | 67.7% | 61.8% | 65.3% | 66.8% | 55.4% | 60.3% | 62% | 60.9% | 46.5% | 51.3% | 56.5% | 57.8% | 43.1% | viability, T/C [5]: 74.3%; viability, T/C [6]: 53.7%; viability, T/C [11]: 61.2%; viability, T/C [12]: 48.7%; viability, T/C [17]: 53.3%; viability, T/C [18]: 39.5%; viability, T/C [22]: 41.5%; viability, T/C [23]: 48.4%; viability, T/C [24]: 27.7%; viability, T/C [25]: 54.1%; viability, T/C [26]: 66.9%; viability, T/C [27]: 51.2%; viability, T/C [28]: 38%; viability, T/C [29]: 41.5%; viability, T/C [30]: 20.7% |
| CC1COCCN1c1cc(-c2ccnn2C)c2ccnc(-c3ccn[nH]3)c2n1 (stereo not given) + CC1OCC2(CCN(c3cnc(Sc4ccnc(N)c4Cl)c(N)n3)CC2)C1N | 18.3 nM | 16.1 nM | 13.2 nM | 13.9 nM | 10.6 nM | 27.6% | 7.87% | 9.44% | 14.9% | 25.4% | 6.51% | 8.34% | 12.3% | 29% | 7.13% | 7.87% | 11.1% | 25.4% | 7.05% | 7.79% | viability, T/C [31]: 75%; viability, T/C [5]: 16.7%; viability, T/C [32]: 67.2%; viability, T/C [11]: 17.1%; viability, T/C [33]: 56.6%; viability, T/C [17]: 17.2%; viability, T/C [34]: 59.9%; viability, T/C [22]: 10.5%; viability, T/C [23]: 16.8%; viability, T/C [35]: 51.3%; viability, T/C [25]: 27.4%; viability, T/C [26]: 7.9%; viability, T/C [27]: 8.11%; viability, T/C [28]: 11.4%; viability, T/C [29]: 15.6% |
| CCN1CCN(Cc2ccc(Nc3ncc(F)c(-c4cc(F)c5nc(C)n(C(C)C)c5c4)n3)nc2)CC1 + CC1OCC2(CCN(c3cnc(Sc4ccnc(N)c4Cl)c(N)n3)CC2)C1N | > 1000 nM | > 1000 nM | > 1000 nM | > 1000 nM | > 1000 nM | 59% | 61.5% | 73.7% | 66% | 55.2% | 57.2% | 75.5% | 61.4% | 58.2% | 60% | 62.2% | 68.8% | 60.9% | 60.8% | 63.8% | viability, T/C (second compound 0.1 µM, first compound 0.00316 µM): 72.4%; viability, T/C [31]: 87%; viability, T/C (second compound 0.316 µM, first compound 0.00316 µM): 66.5%; viability, T/C [32]: 70.6%; viability, T/C (second compound 1 µM, first compound 0.00316 µM): 70.6%; viability, T/C [33]: 59.5%; viability, T/C (second compound 3.16 µM, first compound 0.00316 µM): 66.8%; viability, T/C [34]: 67.9%; viability, T/C [22]: 60.1%; viability, T/C (second compound 10 µM, first compound 0.00316 µM): 62.6%; viability, T/C [35]: 71.8%; viability, T/C [25]: 63.5%; viability, T/C [26]: 61.7%; viability, T/C [27]: 57.4%; viability, T/C [28]: 50.2% |
| CCNC(=O)CC1N=C(c2ccc(Cl)cc2)c2cc(OC)ccc2-n2c(C)nnc21 (stereo not given) + CC1OCC2(CCN(c3cnc(Sc4ccnc(N)c4Cl)c(N)n3)CC2)C1N | 289 nM | 172 nM | 127 nM | 132 nM | 92.9 nM | 71.5% | 71.2% | 47.3% | 33.8% | 76.3% | 61.1% | 36.9% | 29.7% | 66% | 51.5% | 40.4% | 25.7% | 65.8% | 52.2% | 40% | viability, T/C [5]: 26.5%; viability, T/C [6]: 28.7%; viability, T/C [11]: 23.6%; viability, T/C [12]: 22.6%; viability, T/C [17]: 19.6%; viability, T/C [18]: 20.8%; viability, T/C [22]: 23.5%; viability, T/C [23]: 20%; viability, T/C [24]: 20.4%; viability, T/C [25]: 60.7%; viability, T/C [26]: 47.8%; viability, T/C [27]: 35.7%; viability, T/C [28]: 20.6%; viability, T/C [29]: 15.9%; viability, T/C [30]: 16.9% |
| Cn1nccc1Nc1nccc(-c2cc3c(s2)C(C)(C)N(CCN2CCOCC2)C3=O)n1 + CC1OCC2(CCN(c3cnc(Sc4ccnc(N)c4Cl)c(N)n3)CC2)C1N | 493 nM | 485 nM | 490 nM | 602 nM | 427 nM | 94.1% | 70.9% | 58.5% | 41.5% | 69.9% | 62.1% | 58.4% | 38.5% | 73.6% | 66.9% | 57.5% | 38.7% | 71.4% | 63.1% | 63% | viability, T/C [5]: 25%; viability, T/C [6]: 19.6%; viability, T/C [11]: 25.4%; viability, T/C [12]: 15.6%; viability, T/C [17]: 24.7%; viability, T/C [18]: 15.9%; viability, T/C [22]: 40.4%; viability, T/C [23]: 23.3%; viability, T/C [24]: 18.4%; viability, T/C [25]: 50.9%; viability, T/C [26]: 56%; viability, T/C [27]: 57.9%; viability, T/C [28]: 36%; viability, T/C [29]: 27.3%; viability, T/C [30]: 18.2% |
| CC(=O)OC12COC1CC(O)C1(C)C(=O)C(O)C3=C(C)C(OC(=O)C(O)C(NC(=O)OC(C)(C)C)c4ccccc4)CC(O)(C(OC(=O)c4ccccc4)C21)C3(C)C (stereo not given) + CNCc1ccccc1-c1csc(C(C)Nc2nc(C)nc3cc(OC)c(OC)cc23)c1 | < 10 nM | < 10 nM | < 10 nM | < 10 nM | < 10 nM | 16.2% | 15.3% | 14.8% | 16.6% | 16.6% | 16.7% | 15.8% | 19.6% | 13.2% | 13.2% | 13.2% | 19.9% | 13.9% | 0.05% | 0.05% | viability, T/C [31]: 28.2%; viability, T/C [5]: 20.3%; viability, T/C [32]: 20.4%; viability, T/C [11]: 23.6%; viability, T/C [33]: 23%; viability, T/C [17]: 20%; viability, T/C [34]: 0.16%; viability, T/C [22]: 0.1%; viability, T/C [23]: 17%; viability, T/C [35]: 0.17%; viability, T/C [25]: 0.14%; viability, T/C [26]: 0.11%; viability, T/C [27]: 0.11%; viability, T/C [28]: 0.12%; viability, T/C [29]: 0.34% |
